# Reference: patent US20100137266A1, “TREATMENT OF INSULIN RESISTANCE AND DISORDERS ASSOCIATED THEREWITH” (UNIVERSITETET I OSLO, priority 2006, published 2010)
# Columns and labels:
# LXR target genes = assay: Gene expression of LXR target genes in myotubes by Real-Time RT-PCR; format: cell-based, human; settings: for expression of LXRα, increase / expression of SREBP1c, increase: mRNA normalized to 36B4; for mRNA expression of ACSL1, increase / mRNA expression of FAS, increase / mRNA expression of SCD-1, increase / mRNA expression of fatty acid transporter CD36, increase: 1 μM T0901317 or 10 μM 22-R-HC for 4 days; for mRNA expression of CD36, FAS, ACSL1 and SCD-1 compared to T0901317: 10 μM for 4 days vs 1 μM T0901317
# From the text: FIG. 5. Effects of 22-hydroxycholesterols on expression of LXR target genes in human myotubes. Human myoblasts were differentiated and treated with LXR ligands as described in FIG. 3. Total RNA were isolated from the cells, reversely transcribed and analyzed by Real-Time RT-PCR. Results are normalized to levels of 36B4 and present means±SEM (n=4-6; independent muscle cell donors). Relative expressions of (A) liver X receptor […], LXRβ, and sterol regulatory element-binding protein (SREBP)1c, (B) ATP-binding cassette transporter (ABC)A1 (C) acyl-CoA synthetase long chain family member 1 (ACSL1), fatty acid transporter (CD36), fatty acid synthase (FAS), and stearoyl-CoA desaturase (SCD)-1. *p<0.05 vs control, **p<0.05 vs all other treatments.
# Human skeletal muscle cell cultures. A cell bank of satellite cells was established from muscle biopsy samples of the M. vastus lateralis of 6 healthy volunteers, age 25.7 years (±1.4), with BMI 21.6 (±1.0) and fasting glucose and insulin within normal range. The biopsies were obtained with informed consent and by approval of the National Committee for Research Ethics, Oslo, Norway. Muscle cell cultures free of fibroblasts were established by the method of Henry et al. (Diabetes, 44, 936-946, 1995), with minor modifications. Briefly, muscle tissue was dissected in Ham's F-10 media at 4° C., dissociated by three successive treatments with 0.05% trypsin/EDTA, and satellite cells were re-suspended in SkGM with 2% FCS and no added insulin. The cells were grown on culture wells coated with ECM gel (Apmis, 109, 726-734, 2001). At about 80% confluence, fusion of myoblasts into multinucleated myotubes was achieved by growth in DMEM with 2% FCS. All cells used were at passage 4 to 6. After 2 days in DMEM the cells were exposed to vehicle (0.1% DMSO), 1 μM T0901317, 10 μM 22-R-hydroxycholesterol (22-R-HC) or 10 μM 22-S-hydroxycholesterol (22-S-HC) for 4 days.
# RNA isolation and analysis of gene expression by RT-PCR. Myotubes were washed, trypsinized and pelleted before total RNA was isolated by RNeasy Mini kit (Qiagen Sciences, Oslo, Norway) or Agilent Total RNA Mini kit (Matrix, Oslo, Norway) according to the suppliers total RNA isolation protocol. RNA samples were incubated with RNase-free DNase (Qiagen Sciences) for minimum 15 min in an additional step during the RNA isolation procedure. Total RNA (1 μg/μl) was reversely transcribed with hexamere primers using a Perkin-Elmer Thermal Cycler 9600 (25° C. for 10 min, 37° C. for 1 h, 99° C. for 5 min) and a TaqMan reverse-transcription reagents kit (Applied Biosystems). Real time PCR was performed using an ABI PRISM® 7000 Detection System. DNA expression was determined by SYBR® Green (Applied Biosystems), and primers [36B4 (Acc#M17885), ACSL1 (Acc#NM_001995), ABCA1 (Acc#AF165281), CD36 (Acc#L06850), FAS (Acc#U26644), GAPDH (Acc#J104038/M33197, GLUT4 (Acc#M20747), LXRα (Acc#U22662), LXR (Acc#U07132), Myogenin (Acc#X17651), MyoD (Acc#BC064493), PPARα (Acc#L02932), PPARδ (Acc#BC002715), PPARγ (Acc#L40904), SCD-1 (Acc#AB032261), SREBP1c (Acc#U00968)], GLUT1, (Acc#03195), GLUT3 (Acc#M20681), HKII (Acc#AF148513) were designed using Primer Express® (Applied Biosystems). Each target gene was quantified in triplicates and carried out in a 25 μl reaction volume according to the suppliers protocol. All assays were run for 40 cycles (95° C. for 12 s followed by 60° C. for 60 s). The transcription levels were normalized to the housekeeping control genes 36B4 and GAPDH.
# human myotubes = assay: Lipogenesis and lipid distribution: acetate incorporation into FFA, DAG and TAG in myotubes; format: cell-based; settings: compared to control myotubes; for FFA synthesis from labeled acetate, increase / level of TAG from labeled acetate: 1 μM T0901317 or 10 μM 22-HC for 4 days; for level of DAG from labeled acetate: 1 μM T0901317 or 10 μM 22-R-HC for 4 days
# Experimental: Human myoblasts were differentiated and treated with LXR ligands as described in FIG. 3. The cells were then incubated with [1-^14C]acetate (2 μCi/ml, 0.1 mM) for 4 h before levels of free fatty acids (FFA), diacylglycerol (DAG) and triacylgycerol (TAG) were determined. Results present means±SEM (n=5; independent muscle cell donors). **p<0.05 vs all other treatments, ^#p<0.05 vs T0901317. Human skeletal muscle cell cultures. […] The biopsies were obtained with informed consent and by approval of the National Committee for Research Ethics, Oslo, Norway. Muscle cell cultures free of fibroblasts were established by the method of Henry et al. (Diabetes, 44, 936-946, 1995), with minor modifications. Briefly, muscle tissue was dissected in Ham's F-10 media at 4° C., dissociated by three successive treatments with 0.05% trypsin/EDTA, and satellite cells were re-suspended in SkGM with 2% FCS and no added insulin. The cells were grown on culture wells coated with ECM gel (Apmis, 109, 726-734, 2001). At about 80% confluence, fusion of myoblasts into multinucleated myotubes was achieved by growth in DMEM with 2% FCS. All cells used were at passage 4 to 6. After 2 days in DMEM the cells were exposed to vehicle (0.1% DMSO), 1 μM T0901317, 10 μ[…]-hydroxycholesterol (22-R-HC) or 10 μ[…]-hydroxycholesterol (22-S-HC) for 4 days. Lipogenesis and lipid distribution. Myotubes were exposed to DMEM supplemented with [1-^14C]acetic acid (2 μCi/ml, 0.1 mM) for 4 h to study lipogenesis and acetate incorporation into TAG and diacylglycerol (DAG). Myotubes were harvested and analyzed as described above (Palmitate uptake and lipid distribution).
# [1] = 1 μM T0901317 or 10 μM 22-HC for 4 days
# [2] = 10 μM chronic treatment (4 days)
Structure (SMILES),"expression level of ABCA1, increase (LXR target genes; [1])","expression of LXRα, increase (LXR target genes; [1])","expression of SREBP1c, increase (LXR target genes; [1])","mRNA expression of ACSL1, increase (LXR target genes)","mRNA expression of FAS, increase (LXR target genes)","mRNA expression of SCD-1, increase (LXR target genes)","mRNA expression of fatty acid transporter CD36, increase (LXR target genes)","mRNA expression of CD36, FAS, ACSL1 and SCD-1 compared to T0901317 (LXR target genes)","FFA synthesis from labeled acetate, increase (human myotubes)",level of TAG from labeled acetate (human myotubes),level of DAG from labeled acetate (human myotubes),expression level of LXRbeta (LXR target genes; [1]),"ACSL1 mRNA expression, down-regulation (LXR target genes; [2])","CD36 mRNA expression, down-regulation (LXR target genes; [2])","SCD-1 mRNA expression, down-regulation (LXR target genes; [2])",reduction for DAG from labeled acetate (human myotubes; 10 μM for 4 days)
"CC(C)CC[C@@H](O)[C@@H](C)[C@H]1CC[C@H]2[C@@H]3CC=C4C[C@@H](O)CC[C@]4(C)[C@H]3CC[C@]12C [Example 22-R-HC, 22-R-hydroxycholesterol]",17 fold,2-3 fold,2-3 fold,unaffected,unaffected,unaffected,unaffected,significantly reduced,3 fold,slight increase,did not change,,,,,
"CC(C)CC[C@H](O)[C@@H](C)[C@H]1CC[C@H]2[C@@H]3CC=C4C[C@@H](O)CC[C@]4(C)[C@H]3CC[C@]12C [Example 22-S-HC, 22-S-hydroxycholesterol]",very slightly (but insignificantly),None of the genes described in FIG. 5A-B were significantly affected,None of the genes described in FIG. 5A-B were significantly affected,,,,,significantly reduced,only tended to increase FFA synthesis slightly,tendency towards reduced TAG,,None of the genes described in FIG. 5A-B were significantly affected,50-80%,50-80%,50-80%,~50%
O=S(=O)(c1ccccc1)N(CC(F)(F)F)c1ccc(C(O)(C(F)(F)F)C(F)(F)F)cc1 [Example T0901317],14 fold,4-5 fold,4-5 fold,5 fold,4 fold,10 fold,2 fold,,2 fold,increased TAG,increased levels of DAG,,,,,
